assay: gradient 5% acetonitrile 3 min, to 50% in 2 min, to 85% in 15 min, held 3 min, 100 µL/min; conditions: column: Zorbax Extend-C18 2.1 x 50 mm; eluents: water / acetonitrile, 0.1% formic acid
In short: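 Each retention time is based on an adduct peak selected computationally and verified by manual inspection. Measurements used HPLC–quadrupole time-of-flight mass spectrometry in positive and negative ionization mode on mixtures of ~100 pure standards. Chromatography ran on a Zorbax Extend-C18 column (2.1 × 50 mm, 1.8 μm) at 100 μL/min with water and acetonitrile, each containing 0.1% formic acid, and dead and dwell volumes of 40 μL and 900 μL.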

Row | Compound | RP-LC retention time
1 | CCc1nnc(-c2nnc(NC3CCCCCC3)c3ccccc23)o1 | 821 s
2 | CC(C)(C)c1noc(-c2ccnc(-n3cnc(C(=O)N4CCOCC4)c3)c2)n1 | 808 s
3 | O=C(CCC1CCN(S(=O)(=O)c2ccccc2F)CC1)NC1CC1 | 752 s
4 | O=C(NCCCN1CCc2ccccc2C1)c1c(OCC2CC2)cc(=O)n2c1CCCCC2 | 566 s
5 | Cc1cc(NC(=O)C2CCN(C(=O)CSc3nnnn3C)CC2)no1 | 607 s
6 | O=C(CCc1conc1-c1ccc(F)cc1)NCC1CCCCC1 | 996 s
7 | CN1CCC2(CC1)CN(C(=O)Nc1ccccc1)Cc1ccccc1O2 | 637 s
8 | COCCc1noc(C2CN(S(=O)(=O)c3cccnc3)C2)n1 | 669 s
9 | COc1ccc(-c2cn3c(CC(=O)Nc4cccc(C(F)(F)F)c4)csc3n2)cc1OC | 841 s
10 | CS(=O)(=O)N1CCCc2cc(C(=O)NCCC3=CCCCC3)ccc21 | 935 s
11 | Cn1nccc1C(=O)N1CCCC1c1nc(-c2cccc(C(F)(F)F)c2)no1 (stereo unspecified) | 940 s
12 | Cc1nc2cc(NC(=O)c3csc(Nc4ncccn4)n3)ccc2s1 | 706 s
13 | CN(CC(=O)N1CCN(Cc2ccccc2)CC1)S(=O)(=O)c1ccc2c(c1)CCCC(=O)N2 | 600 s
14 | O=C(NC1CC1)c1ccccc1OC1CN(C2CCC2)C1 | 568 s
15 | Cc1ccc(-c2ccc(N3CCN(c4ccccn4)CC3)nn2)cc1S(=O)(=O)N1CCC(C)CC1 | 743 s
16 | COC(=O)COc1cc(-c2ccc(F)cc2)nc2ccc(NC(=O)Cc3ccccc3)cc12 | 809 s

Row | Compound | RP-LC retention time
17 | O=C(CSC1CCCC1)NCCCC(=O)Nc1cccc2cccnc12 | 781 s
18 | CCC(=O)N1CCC(C2CCN(S(=O)(=O)c3ccccc3)CC2)C1 (stereo unspecified) | 788 s
19 | Cn1c(=O)c2nc(S(=O)(=O)CCC(=O)Nc3cc(F)ccc3F)n(C)c2n(C)c1=O | 730 s
20 | O=C(Nc1cnc(N2CCCC2)nc1)c1ccc(Br)o1 | 732 s
21 | Cc1nnc(-c2coc(S(=O)(=O)N3CCC(N4CCCCC4)CC3)c2)o1 | 615 s
22 | O=C(Nc1ccc2nc(-c3ccccc3)cc(N3CCOCC3)c2c1)NC1CCCCC1 | 732 s
23 | O=C(C1CCN(c2cc(N3CCOCC3)ncn2)CC1)N1CCN(c2ccccc2)CC1 | 640 s
24 | Cn1cc(C2=C(c3cn(C4CCN(Cc5ccccn5)CC4)c4ccccc34)C(=O)NC2=O)c2ccccc21 | 753 s
25 | CCOc1ccc(NS(=O)(=O)c2cc3c(s2)CCN(C(=O)C2CCC2)C3)cc1 | 896 s
26 | COc1cc(NC(=O)N2CCOc3ccc(Cl)cc32)cc(OC)c1OC | 899 s
27 | Cc1cc(=O)n(CC(=O)NCc2ccc(F)c(Cl)c2)c(N2CCCCC2)n1 | 716 s
28 | Fc1ccc(-c2n[nH]c(C3CCN(Cc4ccoc4)CC3)n2)cc1 | 595 s
29 | COc1ccc(NC(=O)C2CCc3nc(N4CCOCC4)ncc3C2)cc1F (stereo unspecified) | 718 s
30 | COC(=O)CCc1sc(NC2CCCCC2)nc1-c1ccc(OC)cc1 | 856 s
31 | Cc1nn2c(CNS(=O)(=O)c3c(C)nn(C)c3C)c(C)nc2s1 | 596 s

Second part, the compound after the results:

Row | RP-LC retention time | Compound
32 | 891 s | Cc1noc(-c2cc(=O)n(CC(=O)NCc3ccc(F)cc3Cl)c3ccccc23)n1
33 | 733 s | O=C(c1ccc2c(c1)Sc1ncccc1C(=O)N2C1CC1)N1CCCCC1
34 | 811 s | COc1cc(NC(=O)C2CCN(S(=O)(=O)c3ccc4c(c3)NC(=O)C(C)O4)CC2)cc(OC)c1 (stereo unspecified)
35 | 950 s | Cc1cccc(C(=O)Nc2ccc(N3CCN(C4CCCCC4)C3=O)nc2)c1
36 | 919 s | CCc1nc2ccccc2c(=O)n1Cc1noc(-c2ccccc2OC)n1
37 | 791 s | COc1ccc(C2C(C(=O)Nc3cccc(C)n3)c3ccccc3C(=O)N2C)cc1 (stereo unspecified)
38 | 676 s | COc1ccc(OC)c(NC(=O)Cn2cnc3nc4c(cc3c2=O)CCCC4)c1
39 | 845 s | COc1ccc(CNC(=O)C2(C)CCN(C(=O)Nc3cccc(SC)c3)CC2)cc1
40 | 903 s | CCS(=O)(=O)Nc1ccc(C2(C(=O)NCc3ccccc3)CCCCC2)cc1
41 | 902 s | CCOc1ccccc1NC(=O)N1CCC2(C1)C(=O)N(C)c1ccccc12 (stereo unspecified)
42 | 1090 s | Cc1ccc(-n2ccnc2SCc2nc(-c3ccc(Br)cc3)no2)cc1
43 | 838 s | O=C(CN1CCc2ccccc2C1C(=O)N1CCCC1)NCc1cccc(C(F)(F)F)c1 (stereo unspecified)
44 | 635 s | CCCNC(=O)c1ccc2c(c1)CCN2C(C)=O
45 | 718 s | COC(=O)Cn1c(C2CC(=O)N(c3cccc(OC)c3)C2)nc2ccccc21 (stereo unspecified)
46 | 712 s | Cn1nc(-c2ccccc2)cc1C(=O)N1CCC(C(=O)Nc2nccs2)CC1
47 | 605 s | CN1CCN(CCNC(=O)CCCN2C(=O)C(c3ccccc3)Oc3cccnc32)CC1 (stereo unspecified)
48 | 675 s | CNc1nc(Nc2cc(F)ccc2F)nc2ccccc12
49 | 779 s | CN(CCc1noc(-c2ccc(C(=O)N3CCCCC3)cc2)n1)C(=O)c1ccc2c(c1)OCO2

Row | RP-LC retention time | Compound
50 | 810 s | Cc1ccc(N2CCC(NC(=O)c3ccc(N(C)C)cc3)C2=O)cc1 (stereo unspecified)
51 | 799 s | O=C(CCC(=O)c1ccc(F)cc1)Nc1cnn(-c2ncc(N3CCCC3)cn2)c1
52 | 645 s | Cc1ccnc(NC(=O)C2CCN(S(=O)(=O)c3ccc4c(c3)sc(=O)n4C)CC2)c1
53 | 767 s | Cc1noc2nc(CCC(=O)NCc3ccccc3F)nc(N3CCCC3)c12
54 | 1060 s | CCn1nccc1-c1cccc(-c2noc(-c3cc4ccccc4oc3=O)n2)c1
55 | 1020 s | CCc1cccc(C)c1NC(=O)C1CCCN(S(=O)(=O)c2ccc(OC)c(Cl)c2)C1 (stereo unspecified)
56 | 841 s | COc1ccc(-c2cn3c(CC(=O)N(Cc4ccco4)C4CCCC4)csc3n2)cc1OC
57 | 726 s | O=S(=O)(c1ccccc1Cl)N1CCN(c2ccc3nnc(-c4ccco4)n3n2)CC1
58 | 674 s | N#CC1=C(SCC(=O)Nc2nccs2)NC2=C(C(=O)CCC2)C1c1ccco1 (stereo unspecified)
59 | 1200 s | CCc1nc2cc(-c3noc(-c4ccc(C)s4)n3)ccc2o1
60 | 862 s | C[C@H]1CN(C(=O)c2nn(C)c3ccccc23)C[C@@H]1c1nc(-c2cccnc2)no1
61 | 891 s | Cc1onc(-c2ccccc2Cl)c1C(=O)OCn1nnc2ccccc2c1=O
62 | 831 s | CCc1ccc(NC(=O)C2CC(=O)N(CCc3c[nH]c4ccc(OC)cc34)C2)cc1 (stereo unspecified)
63 | 1010 s | CC(C)c1noc(C2(NC(=O)c3ccc(F)cc3)CCCCC2)n1
64 | 909 s | Cc1cc(F)ccc1NC(=O)Cn1nc2cc(-c3ccccc3)nc(C)n2c1=O
65 | 1140 s | Cc1cc(C)cc(-c2nc(-c3ccc4c(c3)oc(=O)n4C(C)C)no2)c1
66 | 756 s | Cc1nn(-c2ccc(C(=O)NCc3ccco3)cc2)c2c1C(=O)CC(C)(C)C2
